# Reference: patent publication US10292980B2, “GAPDH cascade inhibitor compounds and methods of use and treatment of stress induced disorders including mental illness” (THE JOHNS HOPKINS UNIVERSITY, priority 2012, dated 2019)
# Tests used:
# [1] = target: GAPDH-Siah1 binding (Homo sapiens, UniProt P04406); assay: in vitro binding of purified recombinant GAPDH and GST-Siah1 (GST-agarose pull down, western blot); details: GAPDH pre-incubated with compound
# Description: FIG. 4A-4D depict a deprenyl derivative compound of the present invention that blocks GAPDH-Siah1 binding. […] FIG. 4B is a graph depicting inhibition of GAPDH-Siah1 binding by the RR compound in vitro. GAPDH was pre-incubated with the RR compound, then GST-Siah1 was added and binding was assessed by GST-agarose pull down followed by western blotting. The graph represents quantification results of the blots from 6 experiments. FIG. 4C is a pair of graphs depicting in vitro MAO activity. FIG. 4D is a bar graph showing glycolytic activity in cultured rat neonatal cardiac cells exposed to 1 nM RR for 48 hours *p<0.05.
# To test whether TAC elicits nuclear translocation of GAPDH and activates p300, a specific tool to intervene GAPDH nuclear translocation is needed. Several structural analogues of deprenyl that blocked GAPDH-Siah1 binding and the nuclear GAPDH cascade were previously screened (data not shown).
# [2] = test system: MAO-A/B; assay: MAO activity assay in cultured myocytes; type: cell-based, rat; details: concentrations between 0.1 nM and 10^5 nM
# Description: (§1) HAT activity assay, MEF2 activity assay, MAO activity assay, GAPDH assay: p300 HAT activity was measured using commercially available kit (Biovision), using immunoprecipitation with p300 antibody (Circulation 118, 934-946 (2008)). MEF2 activity was measured using luciferase reporter assay (Panomics). MAO activity assay was measured using commercially available kit (Peninsula Laboratory). GAPDH activity was measured as previously described in (Nat. Cell Biol., 7, 665-674 (2005)). PUMA mRNA expression was determined by real time RT-PCR using SYBR Green fluorescence on a LightCycler instrument (Roche Applied Science). Expression of the gene of interest was divided by the housekeeping gene glyceraldehyde-3-phosphate dehydrogenase (GAPDH) and presented as fold induction of control.
# A major challenge to identify a compound that selectively blocks the nuclear GAPDH cascade is their potential inhibition of monoamine oxidases (MAOs), which deprenyl originally harbors. Thus, it was examined whether RR inhibits MAO-A/B in cultured myocytes and a dramatic contrast was observed between RR and deprenyl. There was no inhibition of MAOs by RR in a wide range of concentrations between 0.1 nM and 10^5 nM concentrations (FIG. 4C).
# [3] = test system: GAPDH-Siah1 binding / nuclear translocation of GAPDH; assay: GAPDH nuclear cascade in cardiac myocytes exposed to ET1 (co-immunoprecipitation, immunostaining, fractionation); type: cell-based, rat
# Description: Physiological analysis, histological analysis: Echocardiography and pressure-volume loop studies were performed as described previously (Takimoto et al., Nat. Med., 11, 214-222 (2005)). 10% formalin fixed heart samples were embedded in paraffin, sectioned and stained for myocyte size (WGA staining) and fibrosis (Masson Trichrome staining) as described previously (Zhang et al., J. Am. Coll. Cardiol., 56, 2021-2030 (2010)). Isolated adult cardiac myocyte or rat neonatal cardiac myocyte was fixed with 50% methanol/50% acetone and stained with antibodies against GAPDH (Millipore), sulphonated GAPDH or HA as previously described.
# (§2) Rat neonatal cardiac myocyte culture: Rat neonatal cardiac myocytes (RNCM) were isolated from 1-2-day-old Sprague-Dawley rats, and cultured cells stimulated with 0.05 μM Endothelin-1, with or without 1 nM RR compound for 48 hours. Protein synthesis was assessed by [^3H]leucine incorporation. Adenoviral transfection of wild-type GAPDH and K227A mutant GAPDH was performed at 10-30 moi as previously described.
# (§3) Protein and RNA analysis: Total RNA was isolated from cells or left ventricular myocardium with Trizol (Molecular Research Center, Inc, Cincinnati, Ohio) and analyzed by real-time polymerase chain reaction (PCR) with TaqMan probes (Applied Biosystems, Foster City, Calif.). Results were normalized to GAPDH or 18S RNA. Cell lysates or nuclear extracts were obtained from cultured myocytes or ventricular tissue, resolved by SDS-polyacrylamide gel electrophoresis, subjected to immunoblotting and imaged by chemiluminescence as previously described.
# To test a role for the GAPDH-p300 signaling in heart hypertrophy, the Gq agonist ET1 was used as a trigger. ET1 is reported to elicit oxidative stress by activating NADPD oxidase and stress is known as a central contributor to cardiac hypertrophic response including pressure-load hypertrophy, as in the TAC model. Thus, cardiac myocytes were exposed to ET1 at 0.05 μM for about 48 hours and the effects on GAPDH signaling was examined. […]
# [4] = test system: p300 HAT / MEF2; assay: p300 acetylation and MEF2 luciferase reporter activity in cardiac myocytes treated with ET1; type: cell-based, rat
# Description: as §2, §1
# (§4) Augmented p300 activity reportedly leads to cardiac hypertrophic response via activation of myocyte enhancer factor 2 (MEF2), a master transcriptional factor of mal-adaptive cardiac hypertrophy. Thus, acylation of p300, and activity of MEF2 was tested, together with several outcome measures for hypertrophy response. In cardiac myocytes treated with ET1, augmentation of p300 acylation (reflecting p300 HAT activity), an augmented activity of MEF2, and increases in cell surface area, protein synthesis assayed by ^3H-leucine uptake, and B-type natriuretic peptide (BNP) expression were observed (FIGS. 5D, E).
# [5] = test system: rat neonatal cardiac myocytes; assay: hypertrophy response of rat neonatal cardiac myocytes to ET1; type: cell-based; details: ET1-treated cardiac myocytes, 1 nM
# Description: as §2, §3, §4
# [6] = test system: DN-DISC1 mice; assay: three chamber social novelty test in DN-DISC1 mice; type: in vivo, mouse
# Source text: DN-DISC1 mice express a putative dominant-negative C-terminal truncated DISC1 under expression control of the α CaMKII promoter. Homozygous DN-DISC1 mice were created by systematic cross-breeding of heterozygotes followed by interbreeding of homozygotes at the Johns Hopkins School of Medicine. In the current studies only homozygous males were used. At 3 to 6 months of age, mice were transferred to the Neurogenetics and Behavior Center, Johns Hopkins University, for behavioral testing. They were housed three or four to a cage under a 12 hour light/dark cycle (lights on at 7:00 A.M to 7:00 P.M) and weighed between 25 and 35 grams prior to food deprivation.
# Measurement of Social Novelty Test: Wt and DN-DISC1 mice were treated with RR compound or control starting at postnatal day 35 (0.25 mg/kg, i.p./day) and continuing throughout the three-chamber social interaction test in adulthood as described in Johnson et al., supra.
# The inventors treated DN-DISC1 mice with RR starting at postnatal day 35 (0.25 mg/kg, i.p./day) and continuing throughout the three-chamber social interaction test in adulthood.
# [7] = ET1 exposure, co-treatment with RR
# [8] = ET1-treated cardiac myocytes, 1 nM
# Sequence of GAPDH-Siah1 binding (P04406 whole entry): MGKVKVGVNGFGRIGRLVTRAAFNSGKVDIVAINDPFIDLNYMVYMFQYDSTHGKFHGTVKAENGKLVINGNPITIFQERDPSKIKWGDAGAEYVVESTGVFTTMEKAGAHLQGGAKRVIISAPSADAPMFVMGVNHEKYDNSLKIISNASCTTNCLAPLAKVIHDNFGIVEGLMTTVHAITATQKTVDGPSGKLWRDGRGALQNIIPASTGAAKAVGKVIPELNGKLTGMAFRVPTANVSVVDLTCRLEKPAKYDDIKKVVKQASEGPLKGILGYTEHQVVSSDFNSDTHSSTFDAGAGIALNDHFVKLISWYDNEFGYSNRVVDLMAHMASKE
structure (smiles),measurement,setting,value
"C#CCN1[C@H](C)Cc2ccccc2[C@H]1C [RR, (1R,3R)-1,3-dimethyl-2-propargyl-1,2,3,4-tetrahydroisoquinoline]",GAPDH-Siah1 interaction in vitro,[1],blocked the interaction at nanomolar concentrations
same,inhibition of MAOs,[2],no inhibition
same,GAPDH-Siah1 binding augmented by ET1,"[3]; ET1 0.05 μM about 48 hours, co-administration of RR",normalized
same,nuclear translocation of GAPDH in response to ET1,"[3]; ET1 0.05 μM, co-treatment 1 nM",blocked
same,accumulation of sulphonated GAPDH in the nucleus,[3]; [7],blocked
same,augmentation of p300 acylation (reflecting p300 HAT activity),[4]; [8],clearly blocked
same,augmented activity of MEF2,[4]; [8],clearly blocked
same,augmentation of p300 acetylation (reflecting p300 HAT activity) in the nucleus,[4]; [7],blocked
same,PUMA expression,[5],unchanged
same,increase in B-type natriuretic peptide (BNP) expression,[5],clearly blocked
same,increase in cell surface area,[5],clearly blocked
same,increase in protein synthesis assayed by 3H-leucine uptake,[5],clearly blocked
same,social deficit (impaired social recognition),"[6]; 0.25 mg/kg, i.p./day from postnatal day 35 through testing in adulthood",ameliorated the social deficit
same,sniffing preference for stranger versus familiar mouse,"[6]; DISC1 mice treated with RR (n=7), p<0.05",preferentially sniffed the stranger mouse over the familiar mouse
